This note sets out measurements from PubChem BioAssay (NCI).

Where “and” joins values, the source holds several entries; their conditions need not be identical. Identical values can stand only once.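 Exposure lasted 48 hours, with cells grown in 96-well plates and compounds tested at five concentrations. The concentration for 50% growth inhibition is given as GI50. TGI denotes the concentration required for complete inhibition of growth.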

Holding throughout (assay): growth of human tumour cells (NCI), 48 h
For assay [1], the system named is CAKI-1 renal.
In assay [2] the test system is IGROV1 ovarian.
The subject of assay [3] is MCF7 breast.
Assay [4] deals with NCI-H226 lung.
Assay [5] has as its system RXF 393 renal.
Assay [6] deals with SK-MEL-2 melanoma.
Assay [7] relates to UACC-257 melanoma.
The test system of assay [8] is K-562 leukemia.
The subject of assay [9] is SF-268 CNS.
The test system of assay [10] is SNB-19 CNS.

`Clc1ccc(CO/N=C(\Cn2ccnc2)c2ccc(Cl)cc2Cl)c(Cl)c1`: the GI50 in assay [1] was 1.38 µM; in [2], 1.92 µM; in assay [3], 1.54 µM; in [4] it was 1.42 µM; in [5] it was 1.61 µM; in assay [6], 2.06 µM. The GI50 in assay [7] is 1.68 µM. For the same compound, the TGI amounted to 3.39 µM in assay [1]; 3.92 µM in [2]; 3.02 µM in [3]; 3.01 µM in [4]; 3.05 µM in assay [5]; 3.92 µM in assay [6]. In [7], this compound showed a TGI of 3.18 µM.

Consider `CNC1C(O)CC(OC2C/C=C(\C)C/C(C)=C/C=C/CCC(C)CNC(=O)/C=C/C=C/C2C)OC1C` (centres undefined), for which the TGI in assay [1] was 1.6 µM; in assay [2] it was 2.58 µM; in assay [8], 0.184 µM; in assay [4] it was 43.8 µM; in assay [5], 2.43 µM; in assay [9], 1.78 µM. For the same compound, the TGI in assay [6] was determined as 2.82 µM; in [10], 8.31 µM; in assay [7], 1.65 µM.

In the case of `CSC(=S)NNC(=O)c1ccncc1`, the TGI amounted to 56.2 µM in assay [1]; 32.7 µM in [2]; 38.5 µM in assay [8]; 52.6 µM in [4]; 31.8 µM in assay [5]; 63.3 µM in [9]. Also, the TGI in [6] is 33.9 µM; in [10] it was 53.1 µM; in assay [7], 56.7 µM.

Take `Nc1ccn([C@@H]2C=C(CO)[C@@H](O)[C@H]2O)c(=O)n1`: the TGI was 4.52 µM and 4.16 µM and 22.2 µM in assay [1]; 222 µM and > 625 µM in assay [2]; 335 µM in assay [8]; 493 µM in [4]; 201 µM and 44.8 µM in [5]; 500 µM and > 625 µM in assay [9]. The TGI in assay [6] is 346 µM and 301 µM; in assay [10], 500 µM and > 625 µM; in [7] it was 470 µM. The GI50 in [8] was 0.0189 µM; in [4], 0.501 µM; in [7] it was 2.97 µM and 1.12 µM.

For `COc1ccc(Nc2ccnc(NCCCNc3ccnc4cc(Cl)ccc34)n2)cc1`, the GI50 in [1] was 1.15 µM; in assay [2] it was 1.48 µM; in [3], 0.599 µM; in assay [4], 1.92 µM; in [5], 0.897 µM; in assay [9] it was 1.52 µM. The GI50 was 1.61 µM in assay [6], 2.61 µM in [10] and 1.33 µM in assay [7]. In addition, the TGI in assay [1] is 2.41 µM; in [2] it was 4.14 µM; in assay [3], 2.42 µM; in [4] it was 4.55 µM; in assay [5], 2.3 µM; in assay [9] it was 3.77 µM. In addition, the results for the TGI in assay [6], in assay [10] and in [7] were 3.21 µM, 10.1 µM and 2.75 µM, respectively.

As for `O=C(O)/C(Cl)=C(\Cl)C(=O)Nc1ccccc1`, the TGI in [1], in [2], in [8], in assay [4], in [5] and in assay [9] was over 100 µM throughout. Further, the TGI in assay [6], in assay [10] and in assay [7] was over 100 µM in each case.

For the compound `[N-]=[N+]=CC(=O)OCC(N)C(=O)O` (centres undefined), the GI50 in assay [1] was 0.429 µM; in assay [2], 5.47 µM; in assay [3] it was 0.456 µM; in [4], 3.53 µM; in assay [5] it was 4.46 µM; in [9], 1.89 µM. Moreover, the values for the GI50 in assay [6], in assay [10] and in assay [7] were 15.9 µM, 2.28 µM and 3.61 µM, respectively. Further, the TGI in assay [1], in [2], in assay [3], in assay [4], in assay [5] and in assay [9] was over 100 µM each time. The TGI in assay [6], in assay [10] and in assay [7] was over 100 µM each time.

Turning to `CC1C2=CC=C(O2)C(C)(C)C2=CC=C(O2)C(C)(C)C2=CC=C(O2)C(C)(C)C2=CC=C1O2`, the TGI in assay [1], in assay [2], in assay [8], in assay [4], in assay [5] and in [9] was over 100 µM in each case. The TGI in assay [6], in assay [10] and in assay [7] was over 100 µM throughout.

Take `Cc1c(Cl)ccc2c1NC(=O)C2(O)C1Cc2ccccc2C1=O` (centres undefined): the TGI in assay [1], in assay [2], in assay [8], in assay [4], in [5] and in assay [9] was over 100 µM in each case. The TGI in assay [6], in [10] and in assay [7] was over 100 µM throughout.

For `Nc1nc(N)c(-c2ccc(Cl)cc2)c(CCC(=O)Nc2cccc(C(F)(F)F)c2)n1`, the TGI in [1], in assay [2], in [8], in assay [4], in assay [5] and in assay [9] was over 100 µM each time. Moreover, the TGI in assay [6], in [10] and in [7] was over 100 µM in each case.

Consider `CN=S(=O)(C[C@]1(O)CC2OC1C1OC(C)(C)OC21)c1ccccc1` (some centres undefined), for which the TGI in assay [1], in assay [2], in assay [8], in [4], in assay [5] and in assay [9] was over 100 µM each time. In addition, the TGI in [6], in assay [10] and in assay [7] was over 100 µM in each case.

As for `CCN(CC)c1ccc2c(c1)N=C1N=CC=CN1C2(c1ccc(N(C)C)cc1)c1ccc(N(C)C)cc1`, the TGI in [1] was 25.2 µM; in assay [2], 26.9 µM; in assay [8], 5.96 µM; in [4] it was 27.2 µM; in [5] it was 23.2 µM; in [9] it was 27.3 µM. Besides, the figures for the TGI in assay [6], in [10] and in [7] were 31.1 µM, 24 µM and 19.5 µM, respectively.
